Data on 2 compounds can be found in publication PMC7926675, “Rainbow Trout (Oncorhynchus mykiss) Na^+/H^+ Exchangers tNhe3a and tNhe3b Display Unique Inhibitory Profiles Dissimilar from Mammalian NHE Isoforms” (International Journal of Molecular Sciences, 2021).

The target of experiment [1] is T1, tNhe3a (trout Na+/H+ exchanger Nhe3a) (Oncorhynchus mykiss, UniProt A4GWV2).
T1 construct: gene NHE3; GFP-tagged tNhe3a (cDNA identical to NM_001130995) stably expressed in NHE-deficient AP-1 cells
T1 sequence (A4GWV2 1-752): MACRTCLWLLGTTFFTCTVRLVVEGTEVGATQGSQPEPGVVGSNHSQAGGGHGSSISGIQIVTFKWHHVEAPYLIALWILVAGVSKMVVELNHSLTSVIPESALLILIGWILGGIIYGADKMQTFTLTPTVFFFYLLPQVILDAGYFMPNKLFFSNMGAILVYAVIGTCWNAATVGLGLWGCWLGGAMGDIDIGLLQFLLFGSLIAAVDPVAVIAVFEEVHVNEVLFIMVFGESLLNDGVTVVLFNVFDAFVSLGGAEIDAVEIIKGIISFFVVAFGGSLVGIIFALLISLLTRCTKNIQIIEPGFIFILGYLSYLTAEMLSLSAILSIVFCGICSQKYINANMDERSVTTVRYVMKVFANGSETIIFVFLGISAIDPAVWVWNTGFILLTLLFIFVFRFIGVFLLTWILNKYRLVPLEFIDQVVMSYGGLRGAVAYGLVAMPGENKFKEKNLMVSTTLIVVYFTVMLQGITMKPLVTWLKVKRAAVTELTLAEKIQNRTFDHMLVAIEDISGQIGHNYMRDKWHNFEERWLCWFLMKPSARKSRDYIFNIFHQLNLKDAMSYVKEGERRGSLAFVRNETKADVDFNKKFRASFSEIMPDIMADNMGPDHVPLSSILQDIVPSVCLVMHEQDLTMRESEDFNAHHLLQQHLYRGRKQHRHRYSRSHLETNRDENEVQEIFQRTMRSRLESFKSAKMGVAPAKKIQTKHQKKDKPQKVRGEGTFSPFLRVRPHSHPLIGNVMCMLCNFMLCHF
As to the kind of experiment: two-pulse ammonium chloride acid-load pHi recovery assay (BCECF) in stably transfected AP-1 cells, background subtracted. The format is cell-based.

Experiment [2] concerns the target T2, tNhe3b (trout Na+/H+ exchanger Nhe3b) (Oncorhynchus mykiss, UniProt B6VDZ5).
T2 construct: GFP-tagged tNhe3b (cDNA identical to FJ376630.1) stably expressed in NHE-deficient AP-1 cells
T2 sequence (B6VDZ5 1-842): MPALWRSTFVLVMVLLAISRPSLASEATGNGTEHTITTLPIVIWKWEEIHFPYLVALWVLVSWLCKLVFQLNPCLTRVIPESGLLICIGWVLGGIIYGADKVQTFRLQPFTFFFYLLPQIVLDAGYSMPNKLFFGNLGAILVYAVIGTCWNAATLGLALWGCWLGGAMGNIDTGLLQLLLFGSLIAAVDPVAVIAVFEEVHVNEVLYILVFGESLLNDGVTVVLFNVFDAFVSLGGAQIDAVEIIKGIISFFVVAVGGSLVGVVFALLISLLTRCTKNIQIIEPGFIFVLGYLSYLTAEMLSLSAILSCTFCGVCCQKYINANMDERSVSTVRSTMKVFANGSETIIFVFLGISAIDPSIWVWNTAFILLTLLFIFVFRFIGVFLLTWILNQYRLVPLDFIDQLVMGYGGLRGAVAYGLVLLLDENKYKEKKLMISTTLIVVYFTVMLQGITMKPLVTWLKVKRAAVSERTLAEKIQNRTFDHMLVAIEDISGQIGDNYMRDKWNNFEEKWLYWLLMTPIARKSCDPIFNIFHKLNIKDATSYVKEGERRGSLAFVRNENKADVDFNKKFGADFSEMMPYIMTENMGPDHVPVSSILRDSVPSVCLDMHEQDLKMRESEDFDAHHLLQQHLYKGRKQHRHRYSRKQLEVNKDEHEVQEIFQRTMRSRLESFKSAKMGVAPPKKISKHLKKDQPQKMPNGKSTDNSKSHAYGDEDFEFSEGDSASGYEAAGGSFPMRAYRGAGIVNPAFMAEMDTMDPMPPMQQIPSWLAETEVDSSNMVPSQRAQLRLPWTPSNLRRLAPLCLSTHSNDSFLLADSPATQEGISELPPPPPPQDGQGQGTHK
Put plainly: two-pulse ammonium chloride acid-load pHi recovery assay (BCECF) in stably transfected AP-1 cells; significant only at […]. The class given is cell-based.

As for `N=C(N)NC(=O)c1nc(Cl)c(N)nc1N` [amiloride, N-amidino-3,5-diamino-6-chloropyrazinecarboxamide], the IC50 (commonly the point on the concentration scale where inhibition reaches its midpoint) was roughly 9.3 µM in experiment [1] and roughly 335 µM in experiment [2].

`CCN(c1nc(N)c(C(=O)NC(=N)N)nc1Cl)C(C)C` [EIPA] had a 50% inhibitory concentration (IC50) in experiment [1] of roughly 44 µM.
